These results are taken from US7488738B2, “Aminophenoxyacetic acid derivatives and pharmaceutical composition containing thereof” (Asubio Pharma Co., Ltd., priority 1998, dated 2009).

The subject of one assay is cells of cerebral cortex. In words: Cytoprotective effect against glutamate induced cell death (MTT). In kind it is cell-based, rats of Wister strain. The following applies: compound 1 μM added 24 h before 1 mM glutamate, fetal rat cerebral cortex cells, control group = 100%. As to the method:
Biological Test 1: Cytoprotective Effect Against Glutamate Induced Cell Death
In accordance with the method of M. P. Mattoson [M. P. Mattoson, Brain Res. Rev., 13, 179 (1988)], brain of 18-days fetus rats of Wister strain were taken out. Then, cells of cerebral cortex (4×10^5 cells/ml) were seeded on poly-L-lysine coated 96 wells flat bottom plate (Sumitomo Bakelite Co., Ltd.) in concentration of 4×10^4 cells/each well. After 48 hours of incubation, 1 μM of test compounds were added, then after further 24 hours, 1 mM of glutamate were further added for inducing the cell injury. 12 hours after adding glutamate, MTT [3-(4,5-dimethylthiazol)-2,5-diphenyltetrazolium bromide] was added and incubated for 6 hours.
After incubation, 200 μl of dimethy sulfoxide was added to each wells, and the amounts of reduced MTT were calorimetrically analyzed by Micro ELISA Reader using 570 nm of main-wavelength and 650 nm of sub-wavelength.
The effect of the test compounds was determined as the survival rate of living cells (%) according to the following equation: Survival rate of living cells (%)=[(test compound group−glutamate treated group)÷(control group−glutamate treated group)]×100
That is, the survival rate of living cells after incubation of the control group was converted to 100%, and the survival data of living cells of the tested compounds was shown in Table II.
Take `Cc1cc(OCC(=O)N(C)C2CCN(CC(=O)N[C@@H]3C[C@H]3c3ccccc3)CC2)c(C)c(C)c1N` (relative stereo) [Compound 66]: the “Survival Rate (%) (Compound: 1 μM)” value is 60%.
On the same count and under the same terms, under `Cc1cc(OC(C)(C)C(=O)NC2CCN(C[C@@H]3C[C@H]3c3ccccc3)CC2)c(C)c(C)c1N` (relative stereo) [Compound 99, 2-(4-Amino-2,3,5-trimethylphenoxy)-2-methyl-N-[1-(trans-2-phenyl-1-cyclopropylmethyl)-4-piperidinyl]propamide] stands 151%.
With `Cc1cc(OC(C)C(=O)NC2CCN(C[C@@H]3C[C@H]3c3ccccc3)CC2)c(C)c(C)c1N` (relative stereo) [Compound 106, 2-(4-Amino-2,3,5-trimethylphenoxy)-N-[1-(trans-2-phenyl-1-cyclopropylmethyl)-4-piperidinyl]propamide], the “Survival Rate (%) (Compound: 1 μM)” value came to 151%.
As to `Cc1cc(N)c(NCC(=O)N(C)C2CCN(C[C@@H]3C[C@H]3c3ccccc3)CC2)cc1C` (relative stereo) [Compound 137, 2-(2-Amino-4-5-dimethylanilino)-N-methyl-N-[1-(trans-2-phenyl-1-cyclopropylmethyl)-4-piperidinyl]acetamide], the “Survival Rate (%) (Compound: 1 μM)” value came to 71%.
`Cc1cc(OC(C)(C)C(=O)N(C)C2CCN(CCc3ccccc3)CC2)c(C)c(C)c1N` [Compound 38, 2-(4-Amino-2,3,5-trimethylphenoxy)-2-methyl-N-methyl-N-[1-(2-phenethyl)-4-piperidinyl]propamide]: the “Survival Rate (%) (Compound: 1 μM)” value is on record as 114%.
The same measure, in the same setting: for `Cc1c(C)c(NCC(=O)N(C)C2CCN(CC(=O)Nc3ccccc3)CC2)c(C)c(C)c1N` [Compound 41, 2-(4-Amino-2,3,5,6-tetramethylanilino)-N-[1-(2-anilino-2-oxyethyl)-4-piperidinyl]-N-methylacetamide] the value was 86%; for `Cc1cc(OCC(=O)N(C)C2CCN(CC(=O)Nc3cccc(Cl)c3C)CC2)c(C)c(C)c1N` [Compound 45, 2-(4-Amino-2,3,5-trimethylphenoxy)-N-[1-(2-(3-chloro-2-methyl)anilino-2-oxyethyl)-4-piperidinyl]-N-methylacetamide], 190%.
Regarding `Cc1cc(OCC(=O)N(C)C2CCN(CC(=O)Nc3ccccc3C(C)(C)C)CC2)c(C)c(C)c1N` [Compound 46, 2-(4-Amino-2,3,5-trimethylphenoxy)-N-[1-(2-(2-tert-butyl)anilino-2-oxyethyl)-4-piperidinyl]-N-methylacetamide], the “Survival Rate (%) (Compound: 1 μM)” value is 101%.
Take `Cc1cc(OC(C)(C)C(=O)N(C)C2CCN(CC(=O)Nc3cccc(Cl)c3C)CC2)c(C)c(C)c1N` [Compound 48, 2-(4-Amino-2,3,5-trimethylphenoxy)-2-methyl-N-[1-(2-(3-chloro-2-methyl)anilino-2-oxyethyl)-4-piperidinyl]-N-methylpropamide]: the “Survival Rate (%) (Compound: 1 μM)” value is listed as 207%.
On the same count and under the same terms, under `Cc1cc(OC(C)(C)C(=O)N(C)C2CCN(CC(=O)Nc3ccccc3C(C)(C)C)CC2)c(C)c(C)c1N` [Compound 49, 2-(4-Amino-2,3,5-trimethylphenoxy)-2-methyl-N-[1-(2-tert-butylanilino-2-oxyethyl)-4-piperidinyl]-N-methylpropamide] stands 193%; under `Cc1cc(OC(C)(C)C(=O)N(C)C2CCN(CC(=O)Nc3c(C)cccc3C)CC2)c(C)c(C)c1N` [Compound 50, 2-(4-Amino-2,3,5-trimethylphenoxy)-2-methyl-N-[1-(2-(2,6-dimethyl)anilino-2-oxyethyl)-4-piperidinyl]-N-methyl-propamide], 54%.
The same measure, in the same setting: under `Cc1cc(OC(C)C(=O)N(C)C2CCN(CC(=O)Nc3ccccc3C(C)(C)C)CC2)c(C)c(C)c1N` (stereo not shown) [Compound 60, 2-(4-Amino-2,3,5-trimethylphenoxy)-N-[1-(2-(2-tert-butylanilino)-2-oxyethyl)-4-piperidinyl]-N-methylpropamide] stands 60%.
With `Cc1cc(OC(C)C(=O)N(C)C2CCN(CC(=O)Nc3c(C)cccc3C)CC2)c(C)c(C)c1N` (stereo not shown) [Compound 61, 2-(4-Amino-2,3,5-trimethylphenoxy)-N-[1-(2-(2,6-dimethylanilino)-2-oxyethyl)-4-piperidinyl]-N-methylpropamide], the “Survival Rate (%) (Compound: 1 μM)” value stood at 58%.
Same read-out and setting: for `Cc1cc(OC(C)C(=O)N(C)C2CCN(C/C=C/c3ccccc3)CC2)c(C)c(C)c1N` (stereo not shown) [Compound 62, 2-(4-Amino-2,3,5-trimethylphenoxy)-N-methyl-N-[1-(3-phenyl-2-(E)-propenyl)-4-piperidinyl]propamide] the value was 63%; for `Cc1cc(OCC(=O)N(C)C2CCN(CC(O)COc3ccccc3)CC2)c(C)c(C)c1N` (stereo not shown) [Compound 65, 2-(4-Amino-2,3,5-trimethylphenoxy)-N-methyl-N-[1-(2-hydroxy-3-phenoxy)propyl-4-piperidinyl]acetamide], 73%; for `Cc1cc(OC(C)(C)C(=O)N(C)C2CCN(C/C=C/c3ccccc3)CC2)c(C)c(C)c1N` [Compound 67, 2-(4-Amino-2,3,5-trimethylphenoxy)-2-methyl-N-methyl-N-{1-(3-phenyl-2-(E)-propenyl)-4-piperidinyl]propamide], 69%.
In the case of `Cc1cc(OC(C)(C)C(=O)N(C)C2CCN(CC3(c4ccccc4)CC3)CC2)c(C)c(C)c1N` [Compound 68, 2-(4-Amino-2,3,5-trimethylphenoxy)-2-methyl-N-methyl-N-[1-(1-phenyl-1-cyclopropane)methyl-4-piperidinyl]propamide], the “Survival Rate (%) (Compound: 1 μM)” value is 75%.
Consider `Cc1cc(OC(C)(C)C(=O)N(C)C2CCN(CC(=O)NC3(c4ccccc4)CC3)CC2)c(C)c(C)c1N` [Compound 69, 2-(4-Amino-2,3,5-trimethylphenoxy)-2-methyl-N-methyl-N-[1-(2-(1-phenylcyclopropyl)amino-2-oxyethyl)-4-piperidinyl]propamide], for which the “Survival Rate (%) (Compound: 1 μM)” value was determined as 68%.
For the compound `Cc1c(C)c(NCC(=O)N(C)C2CCN(CC3(c4ccccc4)CC3)CC2)c(C)c(C)c1N` [Compound 70, 2-(4-Amino-2,3,5,6-tetramethylanilino)-N-methyl-N-[1-(1-phenyl-1-cyclopropane)methyl-4-piperidinyl]acetamide], the “Survival Rate (%) (Compound: 1 μM)” value turned out to be 88%.
With `CCN(C(=O)COc1cc(C)c(N)c(C)c1C)C1CCN(CC(=O)Nc2ccccc2)CC1` [Compound 71, 2-(4-Amino-2,3,5-trimethylphenoxy)-N-[1-(2-anilino-2-oxyethyl)-4-piperidinyl]-N-ethylacetamide], the “Survival Rate (%) (Compound: 1 μM)” value was found to be 89%.
On the same count and under the same terms, under `CCN(C(=O)C(C)Oc1cc(C)c(N)c(C)c1C)C1CCN(CC(=O)Nc2ccccc2)CC1` (stereo not shown) [Compound 75, 2-(4-Amino-2,3,5-trimethylphenoxy)-N-[1-(2-anilino-2-oxyethyl)-4-piperidinyl]-N-ethylpropamide] stands 96%.
Still for that read-out and setting: under `CCN(C(=O)C(C)Oc1cc(C)c(N)c(C)c1C)C1CCN(C/C=C/c2ccccc2)CC1` (stereo not shown) [Compound 77, 2-(4-Amino-2,3,5-trimethylphenoxy)-N-ethyl-N-[1-(3-phenyl-2-(E)-propenyl)-4-piperidinyl]propamide] stands 111%.

Still in this assay, the particulars now being: compound 1 μM added 24 h before 1 mM glutamate, fetal rat cerebral cortex cells, control group = 100%, read-out: Survival Rate (%) (Compound: 1 μM).
With `CCN(C(=O)CNc1c(C)c(C)c(N)c(C)c1C)C1CCN(C[C@@H]2C[C@H]2c2ccccc2)CC1` (relative stereo) [Compound 94, 2-(4-Amino-2,3,5,6-tetramethylanilino)-N-ethyl-N-[1-(trans-2-phenyl-1-cyclopropylmethyl)-4-piperidinyl]acetamide], the viability at 1 µM was found to be 198%.
On the same count and under the same terms, for `Cc1cc(OCC(=O)NC2CCN(C[C@@H]3C[C@H]3c3ccccc3)CC2)c(C)c(C)c1N` (relative stereo) [Compound 95, 2-(4-Amino-2,3,5-trimethylphenoxy)-N-[1-(trans-2-phenyl-1-cyclopropylmethyl)-4-piperidinyl]acetamide] the value was 61%.
The same measure, in the same setting: under `Cc1cc(OCC(=O)N(C)C2CCN(Cc3ccc4ccccc4n3)CC2)c(C)c(C)c1N` [Compound 44, 2-(4-Amino-2,3,5-trimethylphenoxy)-N-methyl-N-[1-(2-quinolylmethyl)-4-piperidinyl]acetamide] stands 93%; under `Cc1cc(OCC(=O)N(C)C2CCN(C/C=C/c3ccccc3)CC2)c(C)c(C)c1N` [Compound 53, 2-(4-Amino-2,3,5-trimethylphenoxy)-N-methyl-N-[1-(3-phenyl-2-(E)-propenyl)-4-piperidinyl]acetamide], 144%; under `CCN(C(=O)COc1cc(C)c(N)c(C)c1C)C1CCN(C/C=C/c2ccccc2)CC1` [Compound 74, 2-(4-Amino-2,3,5-trimethylphenoxy)-N-ethyl-N-[1-(3-phenyl-2-(E)-propenyl)-4-piperidinyl]acetamide], 87%.
On the same count and under the same terms, for `CCN(C(=O)CNc1c(C)c(C)c(N)c(C)c1C)C1CCN(C/C=C/c2ccccc2)CC1` [Compound 78, 2-(4-Amino-2,3,5,6-tetramethylanilino)-N-ethyl-N-[1-(3-phenyl-2-(E)-propenyl)-4-piperidinyl]acetamide] the value was 96%.
